From patent publication US11389423B2, “Pharmaceutical composition, excipient for the composition and use of the composition” (priority 2018, dated 2022)

Legend:
[1] = test system: polychromatic erythrocytes; settings: rats male and female, 20 mg/kg intraperitoneally
Experimental: To perform the micronucleus test (Schmid, 1976), different groups of rats (male and female; n=10) received three doses of CBD (500, 1000 and 2000 mg/kg) orally. The negative control group received placebo by gavage and the positive control was treated with cyclophosphamide monohydrate (20 mg/kg—Sigma-Aldrich) intraperitoneally. After 24 hours (cyclophosphamide) and 48 hours (CBD-SINT and vehicle) the end of treatments, the animals were euthanized by decapitation. The femurs were removed, the proximal epiphysis was removed to expose the medullary canal and, with the aid of a 13×4.5 mm needle and 3 mL NaCl solution (150 mM), the marrow was removed, washing the medullary canal with NaCl solution. The material was transferred to glass tubes and centrifuged at 1000 rpm/5 min. After centrifugation, the supernatant was discarded, and the deposit was resuspended with a 4% formaldehyde solution and slightly homogenized with the aid of a Pasteur pipette. A drop of this cell suspension was placed on a clean, dry slide, and then the smear was performed. The slides were dried at room temperature and, after 24 hours, stained with Leishman eosin-methylene blue and subjected to microscopic analysis. To determine the number of micronuclei, 2000 polychromatic erythrocytes were counted per animal (1000 in each slide) using an optical microscope, at 400× magnification. The analysis of the slides was blind and performed by a single evaluator.

[2] = test system: DNA of male and female rats; settings: rats male and female, 20 mg/kg intraperitoneally, 24 hours, positive control
Experimental: The negative control group received placebo by gavage and the positive control was treated with cyclophosphamide monohydrate (20 mg/kg—Sigma-Aldrich) intraperitoneally.

Structure (SMILES): O=P1(N(CCCl)CCCl)NCCCO1 (stereo not shown) [cyclophosphamide, cyclophosphamide monohydrate, reference compound]
- average number of MNPCE ([1]; 24 hours, positive control (C+)): significant increase
- ratio of polychromatic/normochromatic erythrocytes (PCE/NCE ratio) ([1]; positive control): significantly changed
- increase in the frequency of damage [2]: approximately 100%
- increase in the index of damage [2]: approximately 100%
